Test system: dT10
Test: Thermal denaturation (UV absorbance melting curve, Tm) of hybrids with complementary oligonucleotide dT10
Type: binding
Conditions: for Tm (°C.) Me2 AsO2 Na: 10 mM sodium cacodylate buffer; for Tm (°C.) Nax PO4: phosphate buffer
From the text: Thermal denaturation of an ordered, native structure of a nucleic acid disrupts the base-pair stacking and, as a result, the UV absorbance increases. The change in UV absorbance, known as […], is a measure of base-pairing and base-stacking between the two complementary strands. The UV absorbance profile as a function of temperature is called a melting curve and the midpoint of this curve is defined as the melting temperature, Tm, at which 50% of the double strand is dissociated into its two single strands. Thus, the measurement of UV absorbance melting curves provides qualitative and quantitative structural information about the nucleic acid bound to its complementary ligand. Tm also depends on the concentration of the oligonucleotide and the properties of the solvent (buffer: pH, ionic strength, etc.).
Binding studies were carried out by hybridizing the isolated PENAM described above to its complementary oligonucleotide "dT10 " followed by thermal denaturation and measurement of UV absorbance as a function of temperature. The synthetic oligodeoxynucleotide (ODN) dT10 and its complementary oligodeoxynucleotide dA10 were used as the reference nucleic acids. The samples prepared in phosphate buffer (Nax PO4) can precipitate magnesium phosphate at high temperature during the thermal denaturation cycle. This problem was readily avoided by repeating the experiment in 10 mM sodium cacodylate buffer (Me2 AsO2 Na) instead of the phosphate buffer.

[1] = dT10 + 2KpA10 Km, stoichiometry 1:0:2
[2] = dT10 + KpA10 Km, stoichiometry 1:0:1
[3] = dT10 + dA10 + 2KpA10 Km, stoichiometry 1:1:2
[4] = dT10 + dA10 + KpA10 Km, stoichiometry 1:1:1
[5] = thermal denaturation, summary of Table 1

H-Lys-{(D/L)-(AdhAla)10 }-Lys-NH2 [KpA10 Km]
Tm (°C.) Me2 AsO2 Na (2dT10 + KpA10 Km, stoichiometry 2:0:1): 32.28 °C
Tm (°C.) Me2 AsO2 Na [1]: 32.57 °C
Tm (°C.) Nax PO4 [1]: 30.8 °C
Tm (°C.) Me2 AsO2 Na [2]: 31.00 °C
Tm (°C.) Nax PO4 [2]: 31.26 °C
Tm (°C.) Me2 AsO2 Na [3]: 32.26 °C
Tm (°C.) Nax PO4 [3]: 30.07 °C
Tm (°C.) Me2 AsO2 Na [4]: 31.052 °C
Tm (°C.) Nax PO4 [4]: 31.41 °C
Binding to complementary nucleic acid strand [5]: binds to its complementary nucleic acid strand
Melting temperature compared with reference ODN dT10:dA10 [5]: melt at an even higher temperature than the reference ODN

From patent US5705333A, “Peptide-based nucleic acid mimics(PENAMS)” (The Regents of The University of California, priority 1994, dated 1998)
